# Key:
# [1] = molecular target: T1, Tyrosine-protein phosphatase non-receptor type 2 (Homo sapiens, UniProt P17706); test: Inhibition of TCPTP (unknown origin) using pNPP as substrate incubated for 30 mins by spectrophotometry
# T1 sequence (P17706 whole entry): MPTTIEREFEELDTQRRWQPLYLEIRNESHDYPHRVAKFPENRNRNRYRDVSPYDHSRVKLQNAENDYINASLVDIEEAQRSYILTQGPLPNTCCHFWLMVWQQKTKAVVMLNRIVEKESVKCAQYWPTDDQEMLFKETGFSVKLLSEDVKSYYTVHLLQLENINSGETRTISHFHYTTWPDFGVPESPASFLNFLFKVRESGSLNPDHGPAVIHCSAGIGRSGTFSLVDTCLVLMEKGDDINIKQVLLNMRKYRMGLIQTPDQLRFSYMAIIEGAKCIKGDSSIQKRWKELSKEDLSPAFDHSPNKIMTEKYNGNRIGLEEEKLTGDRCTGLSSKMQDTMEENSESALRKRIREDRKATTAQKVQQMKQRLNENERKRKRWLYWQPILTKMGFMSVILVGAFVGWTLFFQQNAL
# [2] = Inhibition of PTP1B N193A/K197A mutant (unknown origin) using pNPP as substrate incubated for 30 mins by spectrophotometry; design: species or system Homo sapiens
# [3] = molecular target: T2, Tyrosine-protein phosphatase non-receptor type 11 (Homo sapiens, UniProt Q06124); test: Inhibition of SHP2 (unknown origin) using pNPP as substrate incubated for 30 mins by spectrophotometry
# T2 sequence (Q06124 whole entry): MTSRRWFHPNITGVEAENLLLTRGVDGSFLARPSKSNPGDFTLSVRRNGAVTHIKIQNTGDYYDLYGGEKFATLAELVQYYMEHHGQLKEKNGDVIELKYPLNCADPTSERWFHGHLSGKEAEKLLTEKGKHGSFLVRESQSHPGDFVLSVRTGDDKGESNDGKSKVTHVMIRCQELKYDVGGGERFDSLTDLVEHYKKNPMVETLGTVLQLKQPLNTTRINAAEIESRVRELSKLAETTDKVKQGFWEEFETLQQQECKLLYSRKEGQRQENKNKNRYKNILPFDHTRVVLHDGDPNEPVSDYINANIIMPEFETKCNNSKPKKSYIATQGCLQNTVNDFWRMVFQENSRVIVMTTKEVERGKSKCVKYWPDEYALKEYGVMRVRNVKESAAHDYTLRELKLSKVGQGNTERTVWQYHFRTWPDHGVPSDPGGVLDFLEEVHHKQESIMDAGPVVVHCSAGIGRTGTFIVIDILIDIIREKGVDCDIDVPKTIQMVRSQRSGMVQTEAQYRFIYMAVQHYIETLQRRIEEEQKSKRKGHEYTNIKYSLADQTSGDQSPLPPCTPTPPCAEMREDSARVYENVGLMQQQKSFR
# [4] = molecular target: T3, Tyrosine-protein phosphatase non-receptor type 1 (Homo sapiens, UniProt P18031); test: Allosteric inhibition of PTP1B (unknown origin) using pNPP as substrate incubated for 30 mins by spectrophotometry
# T3 sequence (P18031 whole entry): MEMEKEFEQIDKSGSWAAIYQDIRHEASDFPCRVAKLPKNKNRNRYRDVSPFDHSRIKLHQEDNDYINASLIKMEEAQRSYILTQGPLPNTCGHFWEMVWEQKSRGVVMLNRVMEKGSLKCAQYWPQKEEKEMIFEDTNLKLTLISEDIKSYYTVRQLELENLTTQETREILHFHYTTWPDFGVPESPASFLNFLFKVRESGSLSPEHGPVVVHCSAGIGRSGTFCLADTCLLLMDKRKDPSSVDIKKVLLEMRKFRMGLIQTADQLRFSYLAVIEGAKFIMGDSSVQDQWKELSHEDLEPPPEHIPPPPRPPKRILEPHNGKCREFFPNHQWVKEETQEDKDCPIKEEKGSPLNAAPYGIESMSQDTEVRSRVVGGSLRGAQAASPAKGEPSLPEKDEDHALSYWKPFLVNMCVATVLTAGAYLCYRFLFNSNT
IC50 [1],IC50 [2],IC50 [3],IC50 [4],Structure (SMILES)
8.97 µM,12.7 µM,> 20 µM,2.59 µM,O=C(/C=C/c1cc(O)c(O)c(Br)c1Br)c1cccc(Cl)c1
16 µM,11.4 µM,> 20 µM,3.02 µM,O=C(/C=C/c1cc(O)c(O)c(Br)c1Br)c1ccc(Cl)c(Cl)c1
10.3 µM,10.2 µM,> 20 µM,2 µM,Cc1ccc(C(=O)/C=C/c2cc(O)c(O)c(Br)c2Br)cc1
9.7 µM,12.6 µM,> 20 µM,2.15 µM,O=C(/C=C/c1cc(O)c(O)c(Br)c1Br)c1ccc(Cl)cc1
13.6 µM,15.7 µM,> 20 µM,3.59 µM,O=C(/C=C/c1cc(O)c(O)c(Br)c1Br)c1cccc(C(F)(F)F)c1
5.74 µM,10.5 µM,> 20 µM,2.17 µM,O=C(/C=C/c1cc(O)c(O)c(Br)c1Br)c1ccccc1Cl

# Second part, the molecule before the results:
Structure (SMILES),IC50 [1],IC50 [2],IC50 [3],IC50 [4]
CCOc1ccc(C(=O)/C=C/c2cc(O)c(O)c(Br)c2Br)cc1,17.3 µM,9.18 µM,> 20 µM,3.25 µM
COc1ccc(C(=O)/C=C/c2cc(O)c(O)c(Br)c2Br)cc1Br,3.74 µM,9.11 µM,> 20 µM,1.43 µM
O=C(/C=C/c1cc(O)c(O)c(Br)c1)c1cc(Br)c(O)c(Br)c1,15 µM,12.6 µM,> 20 µM,2.54 µM
Cc1ccccc1C(=O)/C=C/c1cc(O)c(O)c(Br)c1Br,9.4 µM,8.01 µM,> 20 µM,1.71 µM
COc1ccc(C(=O)/C=C/c2cc(O)c(O)c(Br)c2)cc1Br,13.4 µM,9.07 µM,> 20 µM,2.45 µM

# Reference: ChEMBL document CHEMBL6096654, “Allosteric inhibition of PTP1B by bromocatechol-chalcone derivatives” (Eur J Med Chem, 2025)
